We go through 22 compounds from patent EP4707277A1, “NOVEL HETEROCYCLIC AMINE DERIVATIVES AND PHARMACEUTICAL COMPOSITION COMPRISING SAME” (Daewoong Pharmaceutical Co., Ltd., priority 2023, dated 2024).

One assay deals with T1, BTK (Homo sapiens, UniProt Q06187).
T1 construct: purchased Signalchem B10-10H
Put plainly: Inhibitory activity against BTK, ADP-Glo Kinase system (Promega). It is filed as biochemical. A digest of the protocol: (§1)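 IC50 values were fitted from kinase reactions run for 1 h at 30°C with either 1 mM ATP or ATP at Km (10 µM for BTK, 25 µM for ITK). Reactions used 0.2 µg/µl poly(Glu4,Tyr1), recombinant human enzyme (BTK 10 ng, ITK 4 ng per reaction) in Tris pH 7.5 Mn/Mg buffer with 1% DMSO. ADP formed was read by ADP-Glo luminescence.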
A general note: In ADP-Glo the light output rises with the ADP produced.

The next assay deals with T2, ITK (Homo sapiens, UniProt Q08881).
T2 construct: purchased Signalchem I13-11G-10
T2 sequence (Q08881 1-620): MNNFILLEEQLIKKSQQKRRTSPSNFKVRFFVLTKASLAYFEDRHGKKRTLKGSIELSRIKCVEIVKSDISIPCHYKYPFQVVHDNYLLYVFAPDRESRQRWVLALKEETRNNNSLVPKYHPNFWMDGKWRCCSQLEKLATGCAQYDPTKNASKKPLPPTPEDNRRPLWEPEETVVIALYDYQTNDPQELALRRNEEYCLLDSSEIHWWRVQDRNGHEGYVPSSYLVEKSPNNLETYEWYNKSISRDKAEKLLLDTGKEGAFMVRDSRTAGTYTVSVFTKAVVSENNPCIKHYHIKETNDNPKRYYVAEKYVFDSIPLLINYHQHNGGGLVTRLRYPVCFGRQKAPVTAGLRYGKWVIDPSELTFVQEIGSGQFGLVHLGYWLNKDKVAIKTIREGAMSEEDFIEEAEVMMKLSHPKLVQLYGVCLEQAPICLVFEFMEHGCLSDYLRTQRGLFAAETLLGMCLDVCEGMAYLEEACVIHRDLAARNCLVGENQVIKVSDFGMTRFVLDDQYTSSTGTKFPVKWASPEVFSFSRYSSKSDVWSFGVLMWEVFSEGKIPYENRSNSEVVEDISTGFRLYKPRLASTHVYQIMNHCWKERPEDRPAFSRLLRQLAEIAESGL
The assay can be described thus: Inhibitory activity against ITK, ADP-Glo Kinase system (Promega). The format is biochemical. A digest of the protocol:
as §1

Where [1] appears, read: 1mM ATP, read-out: BTK IC50(nM) 1mM ATP.
Setting [2] is: Km ATP (BTK: 10 uM), read-out: BTK IC50(nM) Km ATP.
[3] abbreviates: 1mM ATP, read-out: ITK IC50(nM) 1mM ATP.
The mark [4] stands for this setting: Km ATP (ITK: 25uM), read-out: ITK IC50(nM) Km ATP.

Read-outs that look alike come from different tables or passages of the source. A value given as a limit tells only on which side of the number the result lay.

T1 sequence (Q06187 whole entry): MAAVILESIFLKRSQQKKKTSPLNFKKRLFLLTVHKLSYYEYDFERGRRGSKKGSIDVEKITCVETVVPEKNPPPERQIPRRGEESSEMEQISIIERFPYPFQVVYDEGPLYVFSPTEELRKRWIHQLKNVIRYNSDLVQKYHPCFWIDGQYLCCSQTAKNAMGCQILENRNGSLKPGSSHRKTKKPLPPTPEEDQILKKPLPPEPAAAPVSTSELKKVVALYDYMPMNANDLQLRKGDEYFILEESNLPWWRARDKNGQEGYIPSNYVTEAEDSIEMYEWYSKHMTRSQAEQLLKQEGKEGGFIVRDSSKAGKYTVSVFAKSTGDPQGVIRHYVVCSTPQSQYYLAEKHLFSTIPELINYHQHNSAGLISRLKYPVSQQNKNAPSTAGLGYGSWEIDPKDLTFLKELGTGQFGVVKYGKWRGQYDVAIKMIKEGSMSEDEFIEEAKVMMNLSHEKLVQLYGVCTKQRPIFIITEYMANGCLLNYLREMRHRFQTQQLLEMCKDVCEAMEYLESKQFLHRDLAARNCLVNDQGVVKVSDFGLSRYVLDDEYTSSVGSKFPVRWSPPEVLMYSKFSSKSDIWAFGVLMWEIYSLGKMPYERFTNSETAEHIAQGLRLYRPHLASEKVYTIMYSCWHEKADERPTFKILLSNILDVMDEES

Turning to `C=CC(=O)N1CC[C@H](Oc2nc(Nc3ncc(C)s3)cc3c2ccn3C(C)C)C1` [Example 79, (S)-1-(3-((1-isopropyl-6-((5-methylthiazol-2-yl)amino)-1H-pyrrolo[3,2-c]pyridin-4-yl)oxy)pyrrolidin-1-yl)prop-2-en-1-one], the IC50 at BTK (setting [1]), on BTK (setting [2]), on ITK (setting [3]) and on ITK (setting [4]) was no more than 20 nM each time.

In the case of `C=CC(=O)N1C[C@@H](F)[C@H](Oc2nc(Nc3ncc(C)s3)cc3c2ccn3C2CCCC2)C1` [Example 110, 1-((3R,4R)-3-((1-cyclopentyl-6-((5-methylthiazol-2-yl)amino)-1H-pyrrolo[3,2-c]pyridin-4-yl)oxy)-4-fluoropyrrolidin-1-yl)prop-2-en-1-one], the IC50 on BTK (setting [1]) and on ITK (setting [3]) was no more than 20 nM each time.

For `C=CC(=O)Nc1cc(-c2nc(Nc3ncc(C)s3)cc3c2ccn3CC(F)F)ccc1C` [Example 74, N-(5-(1-(2,2-difluoroethyl)-6-((5-methylthiazol-2-yl)amino)-1H-pyrrolo[3,2-c]pyridin-4-yl)-2-methylphenyl)acrylamide], the IC50 at BTK (setting [2]) and on ITK (setting [4]) was no more than 20 nM in each case.

As for `C=CC(=O)N1CC[C@H](Oc2nc(Nc3ncc(C)s3)cc3c2ccn3CCCF)C1` [Example 190, (S)-1-(3-((1-(3-fluoropropyl)-6-((5-methylthiazol-2-yl)amino)-1H-pyrrolo[3,2-c]pyridin-4-yl)oxy)pyrrolidin-1-yl)prop-2-en-1-one], the IC50 at BTK (setting [1]) and at ITK (setting [3]) was no more than 20 nM each time.

Regarding `C=CC(=O)N1C[C@@H](Oc2nc(Nc3ncc(C)s3)cc3c2ccn3CCC)C[C@@H]1C` [Example 187, 1-((2S,4S)-2-methyl-4-((6-((5-methylthiazol-2-yl)amino)-1-propyl-1H-pyrrolo[3,2-c]pyridin-4-yl)oxy)pyrrolidin-1-yl)prop-2-en-1-one], the IC50 on BTK (setting [1]) and on ITK (setting [3]) was no more than 20 nM throughout.

`C=CC(=O)N1CC=C(c2nc(Nc3ncc(C)s3)cc3c2ccn3C2CCCC2)CC1` [Example 5, 1-(4-(1-cyclopentyl-6-((5-methylthiazol-2-yl)amino)-1H-pyrrolo[3,2-c]pyridin-4-yl)-3,6-dihydropyridin-1(2H)-yl)prop-2-en-1-one]: the IC50 on BTK (setting [2]) and at ITK (setting [4]) was no more than 20 nM in each case.

Take `C=CC(=O)N1CC(F)(F)C[C@@H]1COc1nc(Nc2ncc(C)s2)cc2c1ccn2C(C)C` [Example 93, (R)-1-(4,4-difluoro-2-(((1-isopropyl-6-((5-methylthiazol-2-yl)amino)-1H-pyrrolo[3,2-c]pyridin-4-yl)oxy)methyl)pyrrolidin-1-yl)prop-2-en-1-one]: the IC50 at BTK (setting [1]) and at ITK (setting [3]) was no more than 20 nM each time.

In the case of `C=CC(=O)N1CC[C@H](Oc2nc(Nc3ncc(C)s3)cc3c2ccn3CC(C)C)C1` [Example 81, (S)-1-(3-((1-isobutyl-6-((5-methylthiazol-2-yl)amino)-1H-pyrrolo[3,2-c]pyridin-4-yl)oxy)pyrrolidin-1-yl)prop-2-en-1-one], the IC50 at BTK (setting [1]) and at ITK (setting [3]) was no more than 20 nM throughout.

In the case of `C=CC(=O)N1CCC[C@H]1COc1nc(Nc2ncc(C)s2)cc2c1ccn2CC(C)CC` (stereo partly drawn) [Example 221, 1-((2S)-2-(((1-(2-methylbutyl)-6-((5-methylthiazol-2-yl)amino)-1H-pyrrolo[3,2-c]pyridin-4-yl)oxy)methyl)pyrrolidin-1-yl)prop-2-en-1-one], the figures for the IC50 at BTK (setting [1]) and at ITK (setting [3]) were no more than 20 nM and 20 to 100 nM, respectively.

As for `C=CC(=O)N1C[C@@H](F)[C@H](Oc2nc(Nc3ncc(C)s3)cc3c2ccn3C)C1` [Example 157, 1-((3R,4R)-3-fluoro-4-((1-methyl-6-((5-methylthiazol-2-yl)amino)-1H-pyrrolo[3,2-c]pyridin-4-yl)oxy)pyrrolidin-1-yl)prop-2-en-1-one], the IC50 on BTK (setting [1]) and at ITK (setting [3]) was no more than 20 nM in each case.

In the case of `C=CC(=O)N1CC[C@H](Oc2nc(Nc3cc(OC)ncn3)cc3c2ccn3C(C)C)C1` [Example 103, (S)-1-(3-((1-isopropyl-6-((6-methoxypyrimidin-4-yl)amino)-1H-pyrrolo[3,2-c]pyridin-4-yl)oxy)pyrrolidin-1-yl)prop-2-en-1-one], the figures for the IC50 at BTK (setting [1]) and on ITK (setting [3]) were no more than 20 nM and 20 to 100 nM, respectively.

`C=CC(=O)N1CCCC12CCC(Oc1nc(Nc3ncc(C)s3)cc3c1ccn3CC(C)C)C2` (stereo not shown) [Example 201, 1-(7-((1-isobutyl-6-((5-methylthiazol-2-yl)amino)-1H-pyrrolo[3,2-c]pyridin-4-yl)oxy)-1-azaspiro[4.4]nonan-1-yl)prop-2-en-1-one]: the IC50 is 100 to 500 nM at BTK (setting [1]) and greater than 500 nM at ITK (setting [3]).

`C=CC(=O)N1C[C@@H](OC)C[C@@H]1COc1nc(Nc2ncc(C)s2)cc2c1ccn2C(C)C` [Example 94, 1-((2R,4S)-2-(((1-isopropyl-6-((5-methylthiazol-2-yl)amino)-1H-pyrrolo[3,2-c]pyridin-4-yl)oxy)methyl)-4-methoxypyrrolidin-1-yl)prop-2-en-1-one]: the IC50 on BTK (setting [1]) and at ITK (setting [3]) was no more than 20 nM in each case.

Regarding `C=CC(=O)N1CCC12CC(Oc1nc(Nc3ncc(C)s3)cc3c1ccn3CC(C)C)C2` (stereo not shown) [Example 137, 1-(6-((1-isobutyl-6-((5-methylthiazol-2-yl)amino)-1H-pyrrolo[3,2-c]pyridin-4-yl)oxy)-1-azaspiro[3.3]heptan-1-yl)prop-2-en-1-one], the IC50 at BTK (setting [1]) and on ITK (setting [3]) was no more than 20 nM each time.

For `C=CC(=O)N1CCC=C(c2nc(Nc3ncc(C)s3)cc3c2ccn3C(C)C)CC1` [Example 26, 1-(4-(1-isopropyl-6-((5-methylthiazol-2-yl)amino)-1H-pyrrolo[3,2-c]pyridin-4-yl)-2,3,6,7-tetrahydro-1H-azepin-1-yl)prop-2-en-1-one], the IC50 at BTK (setting [2]) and on ITK (setting [4]) was no more than 20 nM throughout.

For the compound `C=CC(=O)N1CC=C(c2nc(Nc3ncc(C)s3)cc3c2ccn3[C@H](C)C(F)(F)F)CC1` [Example 24, (R)-1-(4-(6-((5-methylthiazol-2-yl)amino)-1-(1,1,1-trifluoropropan-2-yl)-1H-pyrrolo[3,2-c]pyridin-4-yl)-3,6-dihydropyridin-1(2H)-yl)prop-2-en-1-one], the IC50 on BTK (setting [1]) was no more than 20 nM; at ITK (setting [3]), 20 to 100 nM.

As to `C=CC(=O)N1CC[C@H](Oc2nc(Nc3ncc(C)s3)cc3c2ccn3CC2CCCC2)C1` [Example 128, (S)-1-(3-((1-(cyclopentylmethyl)-6-((5-methylthiazol-2-yl)amino)-1H-pyrrolo[3,2-c]pyridin-4-yl)oxy)pyrrolidin-1-yl)prop-2-en-1-one], the IC50 at BTK (setting [1]) and at ITK (setting [3]) was no more than 20 nM in each case.

Consider `C=CC(=O)N1CCC[C@H](Oc2nc(Nc3ncc(C)s3)cc3c2ccn3CC(C)C)C1` [Example 150, (S)-1-(3-((1-isobutyl-6-((5-methylthiazol-2-yl)amino)-1H-pyrrolo[3,2-c]pyridin-4-yl)oxy)piperidin-1-yl)prop-2-en-1-one], for which the IC50 was no more than 20 nM on BTK (setting [1]) and 20 to 100 nM on ITK (setting [3]).

On to `C=CC(=O)N1CC(C)(Oc2nc(Nc3ncc(C)s3)cc3c2ccn3C)C1` [Example 166, 1-(3-methyl-3-((1-methyl-6-((5-methylthiazol-2-yl)amino)-1H-pyrrolo[3,2-c]pyridin-4-yl)oxy)azetidin-1-yl)prop-2-en-1-one], for which the IC50 at BTK (setting [1]) and on ITK (setting [3]) was no more than 20 nM in each case.

Turning to `C=CC(=O)N1CC=C(c2nc(Nc3ncc(C)s3)cc3c2ccn3CC2CCCCC2)CC1` [Example 9, 1-(4-(1-(cyclohexylmethyl)-6-((5-methylthiazol-2-yl)amino)-1H-pyrrolo[3,2-c]pyridin-4-yl)-3,6-dihydropyridin-1(2H)-yl)prop-2-en-1-one], the IC50 on BTK (setting [2]) and on ITK (setting [4]) was no more than 20 nM in each case.

As for `C=CC(=O)N1C[C@H](F)[C@H](Oc2nc(Nc3ncc(C)s3)cc3c2ccn3CCC)C1` [Example 159, 1-((3S,4R)-3-fluoro-4-((6-((5-methylthiazol-2-yl)amino)-1-propyl-1H-pyrrolo[3,2-c]pyridin-4-yl)oxy)pyrrolidin-1-yl)prop-2-en-1-one], the IC50 on BTK (setting [1]) and on ITK (setting [3]) was no more than 20 nM each time.

Consider `C=CC(=O)N1CC=C(c2nc(Nc3ncc(C)s3)cc3c2ccn3C(F)F)CC1` [Example 21, 1-(4-(1-(difluoromethyl)-6-((5-methylthiazol-2-yl)amino)-1H-pyrrolo[3,2-c]pyridin-4-yl)-3,6-dihydropyridin-1(2H)-yl)prop-2-en-1-one], for which the IC50 at BTK (setting [2]) and on ITK (setting [4]) was no more than 20 nM throughout.

Broadly, the IC50 is the concentration needed to halve the response being measured.
